The term inhibition denotes the drop in the measured response relative to a control, in per cent.

This is an account of results in ChEMBL document CHEMBL5131382, “Facile and divergent optimization of chromazonarol enabled the identification of simplified drimane meroterpenoids as novel pharmaceutical leads” (Eur J Med Chem, 2022).

Format in all cases: functional
In one assay the test system is Sclerotinia sclerotiorum. The assay can be described thus: Antifungal activity against Sclerotinia sclerotiorum at 150 uM.
The next assay concerns Rhizoctonia solani. The assay can be described thus: Antifungal activity against Rhizoctonia solani at 150 uM.
The next assay has as its system Fusarium graminearum. As to the kind of experiment: Antifungal activity against Fusarium graminearum at 150 uM.
The subject of another assay is Pyricularia oryzae. As to the kind of experiment: Antifungal activity against Pyricularia oryzae at 150 uM.
A further assay deals with Phytophthora capsici. As to the kind of experiment: Antifungal activity against Phytophthora capsici at 150 uM.

Structures are written as SMILES. Bounds are passed on as bounds.

Take `CC1(C)CCC[C@]2(C)[C@H]3Cc4ccc(O)cc4O[C@]3(C)CC[C@@H]12`: the inhibition at 150 µM in the assay on Sclerotinia sclerotiorum is 47%; in the assay with Rhizoctonia solani, 72%; in the assay with Fusarium graminearum, 49%; in the assay on Pyricularia oryzae it was 50%; in the assay on Phytophthora capsici it was 53%.

Take `CC1(C)CCC[C@]2(C)[C@@H](Cc3cc(O)cc(O)c3)[C@](C)(O)CC[C@@H]12`: the inhibition at 150 µM in the assay with Sclerotinia sclerotiorum was 10%; with Rhizoctonia solani, -10%; in the assay with Fusarium graminearum, 5%; in the assay on Pyricularia oryzae, -5%; with Phytophthora capsici, 3%.

For `CC1(C)CCC[C@@]2(C)C1CC[C@@]1(C)Oc3ccc(-c4ccncc4)cc3C[C@@H]12` (stereo not given in full), the inhibition at 150 µM in the assay with Sclerotinia sclerotiorum, with Rhizoctonia solani, with Fusarium graminearum, with Pyricularia oryzae and in the assay with Phytophthora capsici was less than 60% in each case.

Take `CC1(C)CCC[C@]2(C)[C@H]3Cc4cc(O)ccc4O[C@]3(C)CC[C@@H]12`: the inhibition at 150 µM in the assay with Sclerotinia sclerotiorum, in the assay with Rhizoctonia solani, with Fusarium graminearum, in the assay on Pyricularia oryzae and with Phytophthora capsici was less than 60% each time.

In the case of `COc1ccc2c(c1)C[C@@H]1[C@@]3(C)CCCC(C)(C)[C@@H]3CC[C@@]1(C)O2`, the inhibition at 150 µM in the assay on Sclerotinia sclerotiorum, in the assay with Rhizoctonia solani, in the assay with Fusarium graminearum, in the assay with Pyricularia oryzae and in the assay with Phytophthora capsici was less than 60% each time.

On to `CC1(C)CCC[C@@]2(C)C1CC[C@@]1(C)Oc3ccc(-c4ccccc4)cc3C[C@@H]12` (stereo not given in full), for which the inhibition at 150 µM in the assay on Sclerotinia sclerotiorum, in the assay on Rhizoctonia solani, in the assay with Fusarium graminearum, in the assay with Pyricularia oryzae and in the assay on Phytophthora capsici was less than 60% in each case.

In the case of `COc1ccc(C(=O)Oc2ccc3c(c2)C[C@@H]2[C@@]4(C)CCCC(C)(C)[C@@H]4CC[C@@]2(C)O3)cc1`, the inhibition at 150 µM in the assay with Sclerotinia sclerotiorum, in the assay on Rhizoctonia solani, in the assay with Fusarium graminearum, in the assay with Pyricularia oryzae and with Phytophthora capsici was less than 60% throughout.

As to `CC1(C)CCC[C@@]2(C)C1CC[C@@]1(C)Oc3ccc(OS(=O)(=O)C(F)(F)F)cc3C[C@@H]12` (stereo not given in full), the inhibition at 150 µM in the assay on Sclerotinia sclerotiorum, with Rhizoctonia solani, in the assay with Fusarium graminearum, in the assay on Pyricularia oryzae and with Phytophthora capsici was less than 60% in each case.

For the compound `CC1(C)CCC[C@]2(C)[C@H]3Cc4cc(O)cc(O)c4[C@]3(C)CC[C@@H]12`, the inhibition at 150 µM in the assay on Sclerotinia sclerotiorum is 43%; in the assay with Rhizoctonia solani, 68%; in the assay with Fusarium graminearum it was 60%; in the assay with Pyricularia oryzae it was 49%; with Phytophthora capsici, 65%.

For `CC1(C)CCC[C@]2(C)[C@H]3Cc4cc(OC(=O)c5ccccn5)ccc4O[C@]3(C)CC[C@@H]12`, the inhibition at 150 µM with Sclerotinia sclerotiorum, with Rhizoctonia solani, in the assay on Fusarium graminearum, with Pyricularia oryzae and with Phytophthora capsici was less than 60% each time.

`COc1ccc(NC(=O)Oc2ccc3c(c2)C[C@H]2[C@@](C)(CCC4C(C)(C)CCC[C@@]42C)O3)cc1` (stereo not given in full): the inhibition at 150 µM in the assay on Sclerotinia sclerotiorum, in the assay on Rhizoctonia solani, in the assay on Fusarium graminearum, with Pyricularia oryzae and with Phytophthora capsici was less than 60% in each case.

For the compound `CC1(C)CCC[C@@]2(C)C1CC[C@@]1(C)Oc3ccc(-c4ccc(F)cc4)cc3C[C@@H]12` (stereo not given in full), the inhibition at 150 µM in the assay with Sclerotinia sclerotiorum, with Rhizoctonia solani, with Fusarium graminearum, in the assay with Pyricularia oryzae and with Phytophthora capsici was less than 60% each time.

As to `COc1cc2c(cc1OC)O[C@]1(C)CC[C@H]3C(C)(C)CCC[C@]3(C)[C@H]1C2`, the inhibition at 150 µM was determined as 21% in the assay on Sclerotinia sclerotiorum; 13% with Rhizoctonia solani; 29% with Fusarium graminearum; 9% in the assay with Pyricularia oryzae; 5% in the assay on Phytophthora capsici.

For `CC1(C)CCC[C@@]2(C)[C@H]1CCC1(C)Oc3ccc(Oc4cccnc4)cc3C[C@@H]12` (single isomer, unassigned), the inhibition at 150 µM in the assay on Sclerotinia sclerotiorum, in the assay with Rhizoctonia solani, in the assay on Fusarium graminearum, in the assay with Pyricularia oryzae and in the assay with Phytophthora capsici was less than 60% each time.

Consider `CC1(C)CCC[C@]2(C)[C@H]3Cc4cccc(O)c4O[C@]3(C)CC[C@@H]12`, for which the inhibition at 150 µM amounted to 22% in the assay with Sclerotinia sclerotiorum; 53% with Rhizoctonia solani; 31% with Fusarium graminearum; 21% with Pyricularia oryzae; 40% in the assay with Phytophthora capsici.

For `CC1(C)CCC[C@]2(C)C3=CC4=CC(=O)C(=O)C=C4O[C@]3(C)CC[C@@H]12`, the inhibition at 150 µM with Sclerotinia sclerotiorum was 37%; in the assay with Rhizoctonia solani it was 15%; in the assay with Fusarium graminearum, 44%; in the assay on Pyricularia oryzae, -2%; in the assay with Phytophthora capsici, 18%.

As to `CC1(C)CCC[C@]2(C)[C@H]3Cc4cc(OC(=O)c5ccc6ccccc6n5)ccc4O[C@]3(C)CC[C@@H]12`, the inhibition at 150 µM with Sclerotinia sclerotiorum, in the assay with Rhizoctonia solani, in the assay with Fusarium graminearum, with Pyricularia oryzae and in the assay with Phytophthora capsici was less than 60% in each case.

As for `CCCOc1ccc2c(c1)C[C@@H]1[C@@]3(C)CCCC(C)(C)[C@@H]3CC[C@@]1(C)O2`, the inhibition at 150 µM in the assay with Sclerotinia sclerotiorum, in the assay with Rhizoctonia solani, in the assay with Fusarium graminearum, in the assay on Pyricularia oryzae and in the assay on Phytophthora capsici was less than 60% each time.

`CC1(C)CCC[C@]2(C)[C@H]3Cc4cc(OC(=O)c5ccc(F)cc5)ccc4O[C@]3(C)CC[C@@H]12`: the inhibition at 150 µM in the assay on Sclerotinia sclerotiorum, in the assay with Rhizoctonia solani, with Fusarium graminearum, in the assay on Pyricularia oryzae and in the assay with Phytophthora capsici was less than 60% each time.

With `CC1(C)CCC[C@]2(C)[C@H]3Cc4cc(OC(=O)c5cccnc5)ccc4O[C@]3(C)CC[C@@H]12`, the inhibition at 150 µM with Sclerotinia sclerotiorum, with Rhizoctonia solani, with Fusarium graminearum, in the assay with Pyricularia oryzae and in the assay on Phytophthora capsici was less than 60% throughout.

As to `CC1(C)CCC[C@]2(C)[C@@H](Cc3ccc(O)c(O)c3)[C@](C)(O)CC[C@@H]12`, the inhibition at 150 µM in the assay with Sclerotinia sclerotiorum came to 61%; in the assay with Rhizoctonia solani, 49%; in the assay with Fusarium graminearum it was 38%; with Pyricularia oryzae, 50%; in the assay with Phytophthora capsici, 72%.

Consider `CC(=O)Oc1ccc2c(c1)C[C@@H]1[C@@]3(C)CCCC(C)(C)[C@@H]3CC[C@@]1(C)O2`, for which the inhibition at 150 µM with Sclerotinia sclerotiorum, with Rhizoctonia solani, in the assay with Fusarium graminearum, with Pyricularia oryzae and in the assay on Phytophthora capsici was less than 60% throughout.

With `CC1(C)CCC[C@@]2(C)C1CC[C@@]1(C)Oc3ccc(-c4cccnc4)cc3C[C@@H]12` (stereo not given in full), the inhibition at 150 µM with Sclerotinia sclerotiorum, in the assay with Rhizoctonia solani, in the assay on Fusarium graminearum, with Pyricularia oryzae and in the assay with Phytophthora capsici was less than 60% in each case.

Consider `CC1(C)CCC[C@]2(C)[C@H]3Cc4c(O)cccc4O[C@]3(C)CC[C@@H]12`, for which the inhibition at 150 µM came to 52% with Sclerotinia sclerotiorum; 75% in the assay with Rhizoctonia solani; 43% in the assay with Fusarium graminearum; 45% in the assay with Pyricularia oryzae; 54% with Phytophthora capsici.

Regarding `CC1(C)CCC[C@]2(C)[C@H]3Cc4cc(OCc5ccccc5)ccc4O[C@]3(C)CC[C@@H]12`, the inhibition at 150 µM in the assay on Sclerotinia sclerotiorum, with Rhizoctonia solani, in the assay with Fusarium graminearum, with Pyricularia oryzae and in the assay with Phytophthora capsici was less than 60% each time.

In the case of `CC1(C)CCC[C@]2(C)[C@H]3Cc4cc(Oc5cnc6ccccc6c5)ccc4O[C@]3(C)CC[C@@H]12`, the inhibition at 150 µM in the assay on Sclerotinia sclerotiorum, with Rhizoctonia solani, in the assay with Fusarium graminearum, in the assay with Pyricularia oryzae and in the assay on Phytophthora capsici was less than 60% throughout.

On to `Cc1c(C[C@@H]2[C@@]3(C)CCCC(C)(C)[C@H]3CC[C@]2(C)O)c(O)cc(O)c1C[C@@H]1[C@@]2(C)CCCC(C)(C)[C@@H]2CC[C@@]1(C)O`, for which the inhibition at 150 µM in the assay with Sclerotinia sclerotiorum was 6%; in the assay with Rhizoctonia solani, 1%; with Fusarium graminearum it was 4%; in the assay with Pyricularia oryzae, -4%; with Phytophthora capsici it was 6%.

For `C=CCOc1ccc2c(c1)C[C@@H]1[C@@]3(C)CCCC(C)(C)[C@@H]3CC[C@@]1(C)O2`, the inhibition at 150 µM with Sclerotinia sclerotiorum, in the assay with Rhizoctonia solani, with Fusarium graminearum, in the assay on Pyricularia oryzae and in the assay on Phytophthora capsici was less than 60% throughout.

As to `CC(C)(C)C(=O)Oc1ccc2c(c1)C[C@@H]1[C@@]3(C)CCCC(C)(C)[C@@H]3CC[C@@]1(C)O2`, the inhibition at 150 µM in the assay with Sclerotinia sclerotiorum, with Rhizoctonia solani, with Fusarium graminearum, with Pyricularia oryzae and in the assay on Phytophthora capsici was less than 60% throughout.

As to `CCOc1ccc2c(c1)C[C@@H]1[C@@]3(C)CCCC(C)(C)[C@@H]3CC[C@@]1(C)O2`, the inhibition at 150 µM in the assay on Sclerotinia sclerotiorum, with Rhizoctonia solani, with Fusarium graminearum, with Pyricularia oryzae and in the assay with Phytophthora capsici was less than 60% in each case.

Take `CC1(C)CCC[C@]2(C)[C@H]3Cc4cc(Oc5ccccc5)ccc4O[C@]3(C)CC[C@@H]12`: the inhibition at 150 µM with Sclerotinia sclerotiorum, with Rhizoctonia solani, with Fusarium graminearum, in the assay on Pyricularia oryzae and with Phytophthora capsici was less than 60% in each case.
